US8420696B2, “Use of low-dose ladostigil for neuroprotection” (priority 2005, dated 2013)

Legend:
[1] = test system: dopaminergic neuroblastoma SH-SY5Y cells; settings: cited from earlier work
[2] = test system: microglia and astrocytes; assay: Example 2: microglia and astrocyte activation at cannula penetration site after icv STZ; type: in vivo, Sprague-Dawley rats
Description: Male Sprague-Dawley rats (63) weighing 320-340 g, aged 4 months, were anesthetized by an intraperitoneal injection of Equithesin 0.3 ml/kg. STZ (0.5 mg) dissolved in 2 μl artificial cerebrospinal fluid (CSF) was injected into each lateral ventricle of 45 rats. The stereotaxic co-ordinates for icv injection were: 0.9 mm posterior, 1.8 mm lateral and 3.8 mm ventral from the bregma level. Control rats (18) received a bilateral injection of 2 μl artificial CSF. STZ-injected rats (25) were given ladostigil (1 mg/kg of the hemitartrate salt/day) orally in a volume of (1 ml/kg) from one week before, until 1 or 8 weeks after icv STZ. The remaining 20 rats received 1 ml/kg water. The rats were housed two per cage with free access to food and water until the behavioral, enzymatic and cytochemical measurements were completed.
One week after icv injection, 8 rats injected with icv CSF, 7 rats given STZ alone, and 7 treated with ladostigil were anesthetized with sodium pentobarbitone, perfused transcardially and the brains processed for immunocytochemistry. […]
Nitrotyrosine, (NT) a marker of nitrative/oxidative stress, was stained with rabbit anti-nitrotyrosine from Upstate (Lake Placid, N.Y., USA), diluted 1:100 followed by the secondary donkey anti-rabbit conjugated with horseradish peroxidase from Chemicon (Temecula, Calif., USA), was diluted 1:200. […] Images were obtained by bright field microscopy and quantitative assessments of appropriate markers were made using AnalySIS software. […]
Three distinct zones were distinguished in the vicinity of the cortical injection site after icv STZ injection containing astrocytes and microglia with differing morphology. Quantification of microglia and astrocytes in the three zones was made in sections sampled in a range of P0.2-0.8 mm from the bregma. The area of each zone containing the different types of astrocytes was measured and the percentage that each zone occupied in the wound area was calculated (Statistica software, StatSoft, USA). The classes of microglia were counted separately in each zone. […]

[3] = molecular target: T1, MAO-A (Rattus norvegicus, UniProt P21396); assay: Example 2: MAO-A activity in homogenates of striatum; type: in vivo, rats; settings: chronic 1 mg/kg; for MAO-A (%) inhibition: Striatum
T1 construct: from tissue; host or cells: striatum homogenate of dosed Sprague-Dawley rats
T1 sequence (P21396 1-526): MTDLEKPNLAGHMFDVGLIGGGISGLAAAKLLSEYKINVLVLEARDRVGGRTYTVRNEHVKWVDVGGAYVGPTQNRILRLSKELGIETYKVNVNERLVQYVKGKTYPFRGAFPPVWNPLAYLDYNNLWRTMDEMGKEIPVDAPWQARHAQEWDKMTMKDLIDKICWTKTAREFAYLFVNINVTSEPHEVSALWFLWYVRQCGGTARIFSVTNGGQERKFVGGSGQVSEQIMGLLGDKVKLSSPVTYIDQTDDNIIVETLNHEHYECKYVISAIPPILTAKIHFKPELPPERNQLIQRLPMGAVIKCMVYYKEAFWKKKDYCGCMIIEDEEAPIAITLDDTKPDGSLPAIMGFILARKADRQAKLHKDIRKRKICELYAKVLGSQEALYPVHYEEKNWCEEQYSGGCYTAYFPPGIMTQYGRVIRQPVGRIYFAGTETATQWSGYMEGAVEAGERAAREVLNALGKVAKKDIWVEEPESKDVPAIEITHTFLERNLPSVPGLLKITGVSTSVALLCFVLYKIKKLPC
Description: The effect of chronic ladostigil treatment on ChE activity in the cortex and hippocampus of rats was determined one week after icv STZ in 12 rats (3 treated with water and 9 with ladostigil). The effect of acute treatment with ladostigil 1 or 17 mg/kg was determined 2 hrs after drug administration. […] The brain was rapidly removed, washed with saline on ice and the cortex, hippocampus and striatum dissected out, quickly weighed and stored at −70° C. until assay. Total ChE activity in the cortex and hippocampus was measured as described in Wang et al., Gender differences in the effect of rivastigmine on brain cholinesterase activity and cognitive function in rats, Neuropharmacology (2000) 39:497-506, using the spectrophotometric method of Ellman et al., A new and rapid colorimetric determination of acetylcholinesterase activity, Biochem. Pharmacol. (1961) 7:88-95 with acetylthiocholine (Sigma Ltd) as a substrate using homogenate of 100 mg tissue in 1 ml phosphate buffer. To determine only butyrylcholinesterase (BuChE) activity the amounts of tissue/ml of buffer were increased 3-fold and butyrylthiocholine (Sigma Ltd) was used as a substrate. MAO A and B activity was measured in homogenates of striatum as described in Weinstock et al., Limited potentiation of blood pressure response to oral tyramine by brain-selective monoamine oxidase A-B inhibitor, TV-3326 in conscious rabbits, Neuropharmacology (2002) 43:999-1005.

[4] = test system: cultured microglia; assay: Release of NO from cultured microglia induced by LPS; type: cell-based; settings: concentrations of 0.1-10 μM; preliminary data
Description: It is therefore likely that the neuroprotective effect of ladostigil resulted from other actions of the drug. These could include a direct effect on microglia as shown in preliminary data from experiments in our laboratory in which concentrations of 0.1-10 μM reduced by 20-40% the release of NO from cultured microglia induced by LPS. These concentrations are too low to inhibit ChE in microglia.

C#CCN[C@@H]1CCc2ccc(OC(=O)N(C)CC)cc21 [ladostigil, R(+)-6-(N-methyl,N-ethyl-carbamoyloxy)-N′-propargyl-1-aminoindan]
Apoptosis in SH-SY5Y cells exposed to the NO donor Sin1 ([1]; 0.1-1 μM): prevented apoptosis
Apoptosis induced by Sin-1 in cultured SH-SY5Y cells [1]: suppress apoptosis
Changes in microglia and astrocytes in zones i) and iii) resulting from icv STZ ([2]; 1 mg/kg/day hemitartrate orally, seven days after icv STZ): prevented the changes
Density of fibrous microglia in zone ii) ([2]; 1 mg/kg/day orally, seven days after icv STZ): no effect
Scar morphology at cannula penetration site ([2]; eight weeks after icv STZ, with or without ladostigil): No differences
MAO-A (%) inhibition ([3]; 60 min): 2.8 ± 2.5%
MAO-A (%) inhibition ([3]; 120 min): 3.8 ± 2.0%
Effect on striatal MAO-A activity [3]: no effect
Reduction of the release of NO from cultured microglia induced by LPS [4]: 20-40%
